The structures appear in SMILES notation. Bounds are passed on as bounds.

The term IC50 denotes the concentration that inhibits the measured activity by half. The low end stands for greater potency in that assay, the high end for weaker potency in that assay.

In the test the target is T1, Core protein (Hepacivirus C, UniProt Q2Q167).
T1 sequence (Q2Q167 whole entry): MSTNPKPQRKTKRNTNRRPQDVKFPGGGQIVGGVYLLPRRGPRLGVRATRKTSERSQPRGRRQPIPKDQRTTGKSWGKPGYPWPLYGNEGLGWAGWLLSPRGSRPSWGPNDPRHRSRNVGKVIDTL
As to the kind of experiment: disruption of hepatitis C core self-association – biochemical, TR-FRET, dose response (AID 2159).
Compound `O=[N+]([O-])c1cc([CH+][N-]n2c(O)csc2=S)ccc1Cl` [3-[(4-chloranyl-3-nitro-phenyl)methylideneamino]-2-sulfanylidene-1,3-thiazolidin-4-one] showed an IC50 above 49.8 µM.
`COc1cccc(CN=Nc2ncnc3c2[nH]c2ccc(C)cc23)c1OC` [SMR000439805] came in with an IC50 above 49.8 µM.
Turning to `Cc1sccc1C1C(C#N)C(=N)SC(=N)C1C#N` (configuration not stated) [2,6-diamino-4-(2-methyl-3-thiophenyl)-4H-thiopyran-3,5-dicarbonitrile], the IC50 was above 49.8 µM.
Take `Cc1cccc2c1NC(=O)C2=NNc1ccc(S(=O)(=O)Nc2ccc(Cl)cc2)cc1[N+](=O)[O-]` [MLS000393762]: the IC50 was above 49.8 µM.
Then `CCOC1=CC(=Cc2c(-c3ccccc3)[nH]n(-c3nc(-c4ccc(Br)cc4)cs3)c2=O)C=CC1=O`, with above 49.8 µM; and `O=C1Nc2ccc([N+](=O)[O-])cc2/C1=N/NC(=O)c1cc(-c2ccccc2Cl)nc2ccccc12` [2-(2-chlorophenyl)-N'-(2-keto-5-nitro-indol-3-yl)cinchoninohydrazide], with above 49.8 µM; and `Cc1cc(C)n2c(SCC(=O)C(C#N)c3nc4ccccc4[nH]3)nnc2n1` (configuration not stated) [2-(1,3-dihydrobenzimidazol-2-ylidene)-4-[(5,7-dimethyl-[1,2,4]triazolo[4,3-a]pyrimidin-3-yl)sulfanyl]-3-oxidanylidene-butanenitrile], with above 49.8 µM.

For the origin of these results see BindingDB's records for doi:10.7270/Q29Z939R (The Scripps Research Institute Molecular Screening Center, 2009).
